Source: patent US6426369B1, “Oxethazaine as antimicrobial agent” (Eisai Co., Ltd., priority 1997, dated 2002)

Test system: H. pylori
Test: Antimicrobial activity test 6: oxethazaine in combination with an antibiotic (AMPC, CAM, RXM), checker board method
Format: cell-based, Helicobacter pylori
Parameters: key to growth of H. pylori: “−” indicates the inhibited growth of H. pylori (presence of antimicrobial activity); “+” indicates the growth of H. pylori (absence of antimicrobial activity)
Conditions: for growth of H. pylori: oxethazaine μg/ml: 100, 50, 25, 12.5, 6.25, 3.13, 0
Description: The effect of combined use with amoxicillin (AMPC), clarithromycin (CAM) or roxithromycin (RXM) was examined in the same manner as in antimicrobial activity test 1, using the checker board method.

[1] = combined use with oxethazaine, out of 15 strains (AMPC), 21 strains (CAM), 22 strains (RXM)

Structure (SMILES): CC[C@H]1OC(=O)[C@H](C)[C@@H](O[C@H]2C[C@@](C)(OC)[C@@H](O)[C@H](C)O2)[C@H](C)[C@@H](O[C@@H]2O[C@H](C)C[C@H](N(C)C)[C@H]2O)[C@](C)(O)C[C@@H](C)/C(=N\OCOCCOC)[C@H](C)[C@@H](O)[C@]1(C)O [roxithromycin]
- additive effect, number of strains [1]: 19 strains/
- synergism, number of strains [1]: 4 strains/
- growth of H. pylori (strain EH 12, RXM 0.05 μg/ml): +
- growth of H. pylori (strain EH 12, RXM 0.1 μg/ml): +
- growth of H. pylori (strain EH 12, RXM 0.2 μg/ml): −
- growth of H. pylori (strain EH 12, RXM 0.4 μg/ml): −
- growth of H. pylori (strain EH 12, RXM 0.8 μg/ml): −
- growth of H. pylori (strain EH 12, RXM 1.56 μg/ml): −
- growth of H. pylori (strain EH 12, RXM 3.13 μg/ml): −
- growth of H. pylori (strain EH 12, RXM 6.25 μg/ml): −
- growth of H. pylori (strain EH 12, RXM 12.5 μg/ml): −
- growth of H. pylori (strain EH 12, RXM 25 μg/ml): −
- growth of H. pylori (strain EH 12, RXM 50 μg/ml): −
- growth of H. pylori (strain EH 12, RXM 100 μg/ml): −
- growth of H. pylori (strain EH 13, RXM 0.05 μg/ml): +
- growth of H. pylori (strain EH 13, RXM 0.1 μg/ml): +
- growth of H. pylori (strain EH 13, RXM 0.2 μg/ml): −
- growth of H. pylori (strain EH 13, RXM 0.4 μg/ml): −
- growth of H. pylori (strain EH 13, RXM 0.8 μg/ml): −
- growth of H. pylori (strain EH 13, RXM 1.56 μg/ml): −
- growth of H. pylori (strain EH 13, RXM 3.13 μg/ml): −
- growth of H. pylori (strain EH 13, RXM 6.25 μg/ml): −
- growth of H. pylori (strain EH 13, RXM 12.5 μg/ml): −
- growth of H. pylori (strain EH 13, RXM 25 μg/ml): −
- growth of H. pylori (strain EH 13, RXM 50 μg/ml): −
- growth of H. pylori (strain EH 13, RXM 100 μg/ml): −
- growth of H. pylori (strain NCTC11637, RXM 0.05 μg/ml): +
- growth of H. pylori (strain NCTC11637, RXM 0.1 μg/ml): +
- growth of H. pylori (strain NCTC11637, RXM 0.2 μg/ml): −
- growth of H. pylori (strain NCTC11637, RXM 0.4 μg/ml): −
- growth of H. pylori (strain NCTC11637, RXM 0.8 μg/ml): −
- growth of H. pylori (strain NCTC11637, RXM 1.56 μg/ml): −
- growth of H. pylori (strain NCTC11637, RXM 3.13 μg/ml): −
- growth of H. pylori (strain NCTC11637, RXM 6.25 μg/ml): −
- growth of H. pylori (strain NCTC11637, RXM 12.5 μg/ml): −
- growth of H. pylori (strain NCTC11637, RXM 25 μg/ml): −
- growth of H. pylori (strain NCTC11637, RXM 50 μg/ml): −
- growth of H. pylori (strain NCTC11637, RXM 100 μg/ml): −
- growth of H. pylori (strain NCTC11639, RXM 0.05 μg/ml): +
- growth of H. pylori (strain NCTC11639, RXM 0.1 μg/ml): +
- growth of H. pylori (strain NCTC11639, RXM 0.2 μg/ml): +
- growth of H. pylori (strain NCTC11639, RXM 0.4 μg/ml): +
- growth of H. pylori (strain NCTC11639, RXM 0.8 μg/ml): −
- growth of H. pylori (strain NCTC11639, RXM 1.56 μg/ml): −
- growth of H. pylori (strain NCTC11639, RXM 3.13 μg/ml): −
- growth of H. pylori (strain NCTC11639, RXM 6.25 μg/ml): −
- growth of H. pylori (strain NCTC11639, RXM 12.5 μg/ml): −
- growth of H. pylori (strain NCTC11639, RXM 25 μg/ml): −
- growth of H. pylori (strain NCTC11639, RXM 50 μg/ml): −
- growth of H. pylori (strain NCTC11639, RXM 100 μg/ml): −
